Tests used:
[1] = Acute toxicity in Kunming mouse assessed as survival at 30 mg/kg, po measured for 2 weeks; type: organism-based; conditions: in vivo
[2] = Tmax in Sprague-Dawley rat at 2 mg/kg, iv; type: ADME, organism-based; conditions: in vivo
[3] = molecular target: CDK4/Cyclin D3 (Homo sapiens) (UniProt P11802+P30281); assay: Inhibition of CDK4/Cyclin D3 (unknown origin) at 500 nM by ADP-Glo kinase assay relative to control; type: protein-complex assay
[4] = system: SW480; assay: Antiproliferative activity against human SW480 cells assessed as cell growth inhibition after 72 hrs by MTT assay; type: functional
[5] = Acute toxicity in Kunming mouse assessed as body weight change at 20 to 105 mg/kg, po measured for 2 weeks; type: organism-based; conditions: in vivo, 336 h, dose 20-105 mg/kg
[6] = system: HCT-116; assay: Induction of apoptosis in human HCT-116 cells assessed as viable cells at 10 nM measured after 48 hrs by Annexin V-FITC/PI assay (reference value: 88.5%); type: functional; conditions: read-out: Activity
[7] = molecular target: Cyclin-C/Cyclin-dependent kinase 19 (Homo sapiens) (UniProt Q9BWU1+P24863); assay: Inhibition of CDK19/Cyclin C (unknown origin) at 500 nM by ADP-Glo kinase assay relative to control; type: protein-complex assay
[8] = Acute toxicity in Kunming mouse assessed as survival at 105 mg/kg, po measured for 2 weeks; type: organism-based; conditions: in vivo
[9] = Oral bioavailability in Sprague-Dawley rat at 20 mg/kg; type: ADME, organism-based; conditions: in vivo
[10] = molecular target: Cyclin-dependent kinase 13/Cyclin-K (Homo sapiens) (UniProt Q14004+O75909); assay: Inhibition of CDK13/Cyclin K (unknown origin) at 500 nM by ADP-Glo kinase assay relative to control; type: protein-complex assay
Sequence of Cyclin-dependent kinase 13/Cyclin-K (Homo sapiens) (O75909 whole entry, looked up): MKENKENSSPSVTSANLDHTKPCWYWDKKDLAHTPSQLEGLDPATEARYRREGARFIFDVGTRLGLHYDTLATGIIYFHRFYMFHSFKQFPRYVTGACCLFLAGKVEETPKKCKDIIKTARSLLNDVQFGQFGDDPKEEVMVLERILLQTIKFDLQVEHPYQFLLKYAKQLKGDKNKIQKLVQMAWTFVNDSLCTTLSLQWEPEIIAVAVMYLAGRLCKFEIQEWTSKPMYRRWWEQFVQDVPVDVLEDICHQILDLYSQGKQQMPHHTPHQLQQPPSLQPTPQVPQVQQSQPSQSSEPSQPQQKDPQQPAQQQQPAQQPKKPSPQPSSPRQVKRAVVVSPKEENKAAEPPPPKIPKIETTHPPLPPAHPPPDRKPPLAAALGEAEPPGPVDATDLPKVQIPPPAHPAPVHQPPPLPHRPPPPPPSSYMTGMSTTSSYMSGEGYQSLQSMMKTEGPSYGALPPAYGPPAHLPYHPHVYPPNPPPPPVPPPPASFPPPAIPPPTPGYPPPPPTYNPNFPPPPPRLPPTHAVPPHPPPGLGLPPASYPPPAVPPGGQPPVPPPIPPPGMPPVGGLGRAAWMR
Sequence of Cyclin-dependent kinase 13/Cyclin-K (Homo sapiens) (Q14004 whole entry, looked up): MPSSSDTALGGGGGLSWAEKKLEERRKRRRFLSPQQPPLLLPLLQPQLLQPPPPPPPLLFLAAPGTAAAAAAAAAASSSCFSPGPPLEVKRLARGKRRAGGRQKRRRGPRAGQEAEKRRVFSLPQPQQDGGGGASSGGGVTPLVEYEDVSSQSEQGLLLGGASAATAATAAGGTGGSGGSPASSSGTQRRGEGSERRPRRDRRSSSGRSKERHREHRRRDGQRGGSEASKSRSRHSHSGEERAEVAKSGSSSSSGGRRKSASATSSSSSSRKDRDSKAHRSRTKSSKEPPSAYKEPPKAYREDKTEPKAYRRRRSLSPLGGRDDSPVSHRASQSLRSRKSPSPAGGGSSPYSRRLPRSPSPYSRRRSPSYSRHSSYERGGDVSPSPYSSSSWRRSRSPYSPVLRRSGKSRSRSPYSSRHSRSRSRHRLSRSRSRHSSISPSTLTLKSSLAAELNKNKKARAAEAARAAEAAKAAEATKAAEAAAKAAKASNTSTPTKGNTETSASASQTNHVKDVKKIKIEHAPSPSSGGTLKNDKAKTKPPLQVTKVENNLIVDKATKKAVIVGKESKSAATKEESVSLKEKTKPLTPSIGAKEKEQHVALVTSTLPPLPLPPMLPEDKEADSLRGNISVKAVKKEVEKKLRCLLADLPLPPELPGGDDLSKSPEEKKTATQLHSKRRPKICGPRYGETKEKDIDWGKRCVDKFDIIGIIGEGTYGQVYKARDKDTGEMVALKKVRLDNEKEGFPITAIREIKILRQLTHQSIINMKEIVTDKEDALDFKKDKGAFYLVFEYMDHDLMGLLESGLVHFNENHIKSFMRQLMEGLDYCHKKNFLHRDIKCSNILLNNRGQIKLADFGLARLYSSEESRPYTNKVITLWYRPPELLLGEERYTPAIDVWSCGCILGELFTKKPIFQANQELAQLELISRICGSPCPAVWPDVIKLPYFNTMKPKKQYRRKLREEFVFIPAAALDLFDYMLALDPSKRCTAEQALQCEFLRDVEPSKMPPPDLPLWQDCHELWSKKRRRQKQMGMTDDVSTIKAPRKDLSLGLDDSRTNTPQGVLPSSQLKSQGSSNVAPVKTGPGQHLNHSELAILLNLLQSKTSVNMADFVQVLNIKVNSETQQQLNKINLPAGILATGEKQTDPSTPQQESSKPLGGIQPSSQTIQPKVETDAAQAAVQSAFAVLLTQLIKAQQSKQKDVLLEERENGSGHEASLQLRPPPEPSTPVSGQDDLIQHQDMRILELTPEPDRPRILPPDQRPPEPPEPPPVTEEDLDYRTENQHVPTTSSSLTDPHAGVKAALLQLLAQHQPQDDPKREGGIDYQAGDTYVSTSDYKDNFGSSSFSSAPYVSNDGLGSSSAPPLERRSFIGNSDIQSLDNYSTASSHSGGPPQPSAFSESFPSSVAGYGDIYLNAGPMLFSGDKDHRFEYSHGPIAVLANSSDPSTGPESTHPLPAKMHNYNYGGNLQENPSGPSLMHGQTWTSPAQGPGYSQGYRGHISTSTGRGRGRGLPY

[11] = Clearance in Sprague-Dawley rat at 2 mg/kg, iv; type: ADME, organism-based; conditions: in vivo
[12] = AUC (0 to t) in Sprague-Dawley rat at 2 mg/kg, iv; type: ADME, organism-based; parameters: dose 2 mg/kg, route iv; conditions: in vivo
[13] = Volume of distribution at steady state in Sprague-Dawley rat at 2 mg/kg, iv; type: ADME, organism-based; conditions: in vivo, read-out: Vdss
[14] = molecular target: Cholinesterase (Equus caballus, UniProt P81908); assay: Inhibition of equine serum BuChE using […] as substrate for 20 mins by Ellman's method
Sequence of Cholinesterase (P81908 whole entry): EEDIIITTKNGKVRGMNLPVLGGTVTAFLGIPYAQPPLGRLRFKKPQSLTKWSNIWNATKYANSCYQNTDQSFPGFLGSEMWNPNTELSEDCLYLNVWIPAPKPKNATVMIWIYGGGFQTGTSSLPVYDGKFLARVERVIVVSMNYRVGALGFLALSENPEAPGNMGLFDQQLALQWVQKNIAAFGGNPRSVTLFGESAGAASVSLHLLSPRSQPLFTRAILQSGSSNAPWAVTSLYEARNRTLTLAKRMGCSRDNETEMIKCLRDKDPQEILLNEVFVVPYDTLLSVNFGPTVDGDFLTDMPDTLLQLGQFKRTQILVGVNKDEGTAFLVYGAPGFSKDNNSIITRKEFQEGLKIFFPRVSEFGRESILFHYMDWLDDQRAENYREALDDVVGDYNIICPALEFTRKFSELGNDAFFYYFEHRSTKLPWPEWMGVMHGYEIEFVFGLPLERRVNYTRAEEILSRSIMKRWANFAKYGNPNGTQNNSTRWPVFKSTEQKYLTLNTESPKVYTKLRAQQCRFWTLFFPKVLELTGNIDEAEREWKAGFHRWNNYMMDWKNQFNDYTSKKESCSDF

[15] = molecular target: CDK7/Cyclin H/MNAT1 (Homo sapiens) (UniProt P51946+P50613+P51948); assay: Inhibition of CDK7/Cyclin H/MAT1 (unknown origin) at 500 nM by ADP-Glo kinase assay relative to control; type: protein-complex assay
[16] = system: HCT-116; assay: Cell cycle arrest in human HCT-116 cells assessed as accumulation of cells at […] phase at 20 nM measured after 48 hrs by flow cytometry (reference value: 6.39%); type: functional
[17] = molecular target: T1, Cyclin-dependent kinase 5/CDK5 activator 1 (Homo sapiens) (UniProt Q00535+Q15078); assay: Inhibition of CDK5/p35 NCK (unknown origin) at 500 nM by ADP-Glo kinase assay relative to control; type: protein-complex assay
T1 sequence (Q00535 whole entry): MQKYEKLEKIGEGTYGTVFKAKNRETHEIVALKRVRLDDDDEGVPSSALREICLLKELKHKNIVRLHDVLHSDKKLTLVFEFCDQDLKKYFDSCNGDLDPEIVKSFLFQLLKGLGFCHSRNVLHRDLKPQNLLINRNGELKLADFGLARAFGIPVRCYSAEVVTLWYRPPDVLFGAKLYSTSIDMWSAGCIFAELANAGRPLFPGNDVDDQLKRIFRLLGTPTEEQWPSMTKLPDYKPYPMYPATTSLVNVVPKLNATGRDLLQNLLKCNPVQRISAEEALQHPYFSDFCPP
T1 sequence (Q15078 99-307 partner limits assumed): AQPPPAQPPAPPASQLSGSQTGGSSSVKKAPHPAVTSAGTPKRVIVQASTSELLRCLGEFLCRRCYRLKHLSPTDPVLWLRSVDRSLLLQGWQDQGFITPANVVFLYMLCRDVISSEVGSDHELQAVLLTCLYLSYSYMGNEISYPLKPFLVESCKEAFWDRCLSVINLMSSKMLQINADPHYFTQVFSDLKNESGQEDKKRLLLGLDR

[18] = molecular target: CDK3/Cyclin E (Homo sapiens) (UniProt P24864+Q00526); assay: Inhibition of CDK3/Cyclin E1 (unknown origin) at 500 nM by ADP-Glo kinase assay relative to control; type: protein-complex assay
Sequence of CDK3/Cyclin E (Homo sapiens) (P24864 whole entry, looked up): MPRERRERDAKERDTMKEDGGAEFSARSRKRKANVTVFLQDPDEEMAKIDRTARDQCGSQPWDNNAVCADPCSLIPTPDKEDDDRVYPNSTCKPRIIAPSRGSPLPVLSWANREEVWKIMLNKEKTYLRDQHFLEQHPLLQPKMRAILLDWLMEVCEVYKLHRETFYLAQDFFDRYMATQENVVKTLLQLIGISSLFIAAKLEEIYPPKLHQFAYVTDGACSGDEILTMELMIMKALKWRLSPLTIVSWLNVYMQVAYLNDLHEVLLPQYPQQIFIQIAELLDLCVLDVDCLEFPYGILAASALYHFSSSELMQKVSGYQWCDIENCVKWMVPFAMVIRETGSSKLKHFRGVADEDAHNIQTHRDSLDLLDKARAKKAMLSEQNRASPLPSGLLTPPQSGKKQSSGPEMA
Sequence of CDK3/Cyclin E (Homo sapiens) (Q00526 whole entry, looked up): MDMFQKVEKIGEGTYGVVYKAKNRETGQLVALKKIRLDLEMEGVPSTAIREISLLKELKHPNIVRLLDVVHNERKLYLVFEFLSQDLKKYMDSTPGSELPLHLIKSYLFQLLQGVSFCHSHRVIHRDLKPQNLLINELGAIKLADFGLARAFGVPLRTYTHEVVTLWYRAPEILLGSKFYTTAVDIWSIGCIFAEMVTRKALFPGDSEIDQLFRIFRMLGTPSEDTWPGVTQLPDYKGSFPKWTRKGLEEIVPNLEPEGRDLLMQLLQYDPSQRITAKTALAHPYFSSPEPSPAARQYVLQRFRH

[19] = system: A549; assay: Antiproliferative activity against human A549 cells assessed as cell growth inhibition after 72 hrs by MTT assay; type: functional
[20] = molecular target: Cyclin-Y/Cyclin-dependent kinase 16 (Homo sapiens) (UniProt Q00536+Q8ND76); assay: Inhibition of CDK16/Cyclin Y (unknown origin) at 500 nM by ADP-Glo kinase assay relative to control; type: protein-complex assay
[21] = Half life in Sprague-Dawley rat at 20 mg/kg, po; type: ADME, organism-based; conditions: in vivo
[22] = system: HCT-116; assay: Induction of apoptosis in human HCT-116 cells assessed as late apoptotic cells at 10 nM measured after 48 hrs by Annexin V-FITC/PI assay (reference value: 6.06%); type: functional
[23] = system: HCT-116; assay: Induction of apoptosis in human HCT-116 cells assessed as early apoptotic cells at 10 nM measured after 48 hrs by Annexin V-FITC/PI assay (reference value: 3.16%); type: functional
[24] = system: HCT-116; assay: Antitumor activity against human HCT-116 cells xenografted in BALB/cA-nu mouse tumor model assessed as tumor volume growth inhibition at 10 mg/kg, intragastric administration for 21 days relative to control; type: functional; conditions: HCT-116, 504 h, route ig, time 21 day, read-out: GI
[25] = molecular target: Acetylcholinesterase (Electrophorus electricus, UniProt O42275); assay: Inhibition of electric eel AChE using acetylthiocholine […] as substrate for 20 mins by Ellman's method
Sequence of Acetylcholinesterase (O42275 whole entry): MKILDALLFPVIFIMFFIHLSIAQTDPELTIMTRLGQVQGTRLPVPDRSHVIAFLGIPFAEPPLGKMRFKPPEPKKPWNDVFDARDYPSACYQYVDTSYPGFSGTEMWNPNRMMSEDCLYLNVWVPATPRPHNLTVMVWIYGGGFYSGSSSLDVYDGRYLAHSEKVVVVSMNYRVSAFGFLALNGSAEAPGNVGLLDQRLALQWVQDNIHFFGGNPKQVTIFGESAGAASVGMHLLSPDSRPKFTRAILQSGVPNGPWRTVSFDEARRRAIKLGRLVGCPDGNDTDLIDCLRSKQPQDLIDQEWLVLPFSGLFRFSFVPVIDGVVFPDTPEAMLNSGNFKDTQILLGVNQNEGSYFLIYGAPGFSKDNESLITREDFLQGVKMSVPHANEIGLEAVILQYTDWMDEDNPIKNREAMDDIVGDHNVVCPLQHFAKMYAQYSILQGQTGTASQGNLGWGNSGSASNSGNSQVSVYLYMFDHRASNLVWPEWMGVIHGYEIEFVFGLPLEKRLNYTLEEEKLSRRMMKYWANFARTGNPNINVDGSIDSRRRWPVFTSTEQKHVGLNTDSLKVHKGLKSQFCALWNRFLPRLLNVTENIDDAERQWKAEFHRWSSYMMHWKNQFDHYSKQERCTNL

[26] = molecular target: CDK6/cyclin D1 (Homo sapiens) (UniProt P24385+Q00534); assay: Inhibition of CDK6/Cyclin D1 (unknown origin) at 500 nM by ADP-Glo kinase assay relative to control; type: protein-complex assay
[27] = system: HCT-116; assay: Cell cycle arrest in human HCT-116 cells assessed as accumulation of cells at S phase at 20 nM measured after 48 hrs by flow cytometry (reference value: 31.43%); type: functional
[28] = molecular target: CDK1/Cyclin E (Homo sapiens) (UniProt P06493+P24864); conditions: dose 500.0 nM
Sequence of CDK1/Cyclin E (Homo sapiens) (P06493 whole entry, looked up): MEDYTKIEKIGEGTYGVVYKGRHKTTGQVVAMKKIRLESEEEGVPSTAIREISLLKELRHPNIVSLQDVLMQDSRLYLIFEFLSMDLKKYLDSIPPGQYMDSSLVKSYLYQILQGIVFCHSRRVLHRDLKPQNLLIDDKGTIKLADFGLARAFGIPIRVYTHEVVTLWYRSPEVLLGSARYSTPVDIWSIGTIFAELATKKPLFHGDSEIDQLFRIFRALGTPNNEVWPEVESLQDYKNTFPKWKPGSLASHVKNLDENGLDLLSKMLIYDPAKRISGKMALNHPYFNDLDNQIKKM
Sequence of CDK1/Cyclin E (Homo sapiens) (P24864 whole entry, looked up): as the sequence (P24864 whole entry, looked up) above
Description: Inhibition of CDK1/Cyclin E1 (unknown origin) at 500 nM by ADP-Glo kinase assay relative to control

[29] = Acute toxicity in Kunming mouse assessed as survival at 46 mg/kg, po measured for 2 weeks; type: organism-based; conditions: in vivo
[30] = AUC (0 to infinity) in Sprague-Dawley rat at 20 mg/kg, po; type: ADME, organism-based; parameters: dose 20 mg/kg, route po; conditions: in vivo
[31] = system: HCT-116; assay: Induction of apoptosis in human HCT-116 cells assessed as necrotic cells at 20 nM measured after 48 hrs by Annexin V-FITC/PI assay (reference value: 2.31%); type: functional
[32] = system: MCF7; assay: Antiproliferative activity against human MCF7 cells assessed as cell growth inhibition after 72 hrs by MTT assay; type: functional
[33] = molecular target: Cyclin-dependent kinase 4/cyclin D1 (Homo sapiens) (UniProt P11802+P24385); assay: Inhibition of CDK4/Cyclin D1 (unknown origin) at 500 nM by ADP-Glo kinase assay relative to control; type: protein-complex assay
[34] = system: HCT-116; assay: Inhibition of colony formation in human HCT-116 cells treated for 24 hrs followed by replaced with fresh culture media for 10 days by Colony formation assay; type: functional, cell-based; conditions: dose 2-18 nM
[35] = system: HCT-116; assay: Cell cycle arrest in human HCT-116 cells assessed as accumulation of cells at G0-G1 phase at 20 nM measured after 48 hrs by flow cytometry (reference value: 62.18%); type: functional
[36] = molecular target: T1, Cyclin-dependent kinase 5/CDK5 activator 1 (Homo sapiens); assay: Inhibition of CDK5/p25 NCK (unknown origin) at 500 nM by ADP-Glo kinase assay relative to control; type: protein-complex assay
[37] = molecular target: CDK9/cyclin T1 (Homo sapiens) (UniProt O60563+P50750); assay: Inhibition of CDK9/CyclinT1 (unknown origin) at 500 nM by ADP-Glo kinase assay relative to control; type: protein-complex assay
[38] = system: HCT-116; assay: Inhibition of cell migration in human HCT-116 cells after 48 hrs by Wound healing scratch assay; type: functional, cell-based; conditions: dose 2-18 nM
[39] = system: HCT-116; assay: Cell cycle arrest in human HCT-116 cells assessed as accumulation of cells at S phase at 10 nM measured after 48 hrs by flow cytometry (reference value: 31.43%); type: functional

Cl.N[C@H]1CCN(c2c3c(nc4ccc(-c5ccnc(NC(=O)C6CC6)n5)cc24)CCCCC3)C1 showed a survival at 336 h [1] of 100%, a Tmax [2] of 4.98 min and an inhibition [3] of 29.4%. The GI50 [4] was 13 nM, the Activity [5] was “Non-Toxic” and the viability at 0.01 µM [6] was 74%. The inhibition [7] was 12.9%, the survival at 336 h [8] was 50% and the bioavailability [9] was 27.5%. The inhibition [10] was 80.9%, the clearance [11] was 312 mL/min/kg and the AUC(0-t) [12] was 110 ng·h/mL. The Vd [13] was 12.6 L/kg, the IC50 [14] was 2770 nM and the inhibition [15] was 60.4%. For the same compound, the Activity [16] was 13.11%, the inhibition [17] was 41.4% and the inhibition [18] was 65.5%. It also gave a GI50 [19] of 9 nM, an inhibition [20] of 76.1% and a half-life [21] of 106 min. For the same compound, the Activity [22] was ~7.47%, the Activity [23] was 16.3% and the inhibition in vivo at 10 mg/kg [24] was 47.7%. It also gave an IC50 [25] of 19000 nM, an inhibition [26] of 22.1% and an Activity [27] of 49.38%. It also gave an inhibition [28] of 48.6%, a survival at 336 h [29] of 100% and an AUC(0-inf) [30] of 316 ng·h/mL. The Activity [31] was 1.23%, the GI50 [32] was 6 nM and the inhibition [33] was 31.6%. The inhibition [34] was “Dose-Dependent Effect”, the Activity [35] was 37.51% and the inhibition [36] was 64.5%. The inhibition [37] was 99.8%, the inhibition [38] was “Dose-Dependent Effect” and the Activity [39] was 42.75%.

Source: ChEMBL document CHEMBL5352406 (Eur J Med Chem, 2022)
